From PubChem BioAssay (NCI)
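Method: 48-hour compound exposure of cells in 96-well plates, five concentrations, linear interpolation of endpoints. TGI: total growth inhibition.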

Legend:
Assay in all cases: DTP human tumour cell line panel, 48 h
SNB-19 CNS = test system: SNB-19 CNS
IGROV1 ovarian = test system: IGROV1 ovarian
NCI-H226 lung = test system: NCI-H226 lung
SNB-75 CNS = test system: SNB-75 CNS
SW-620 colon = test system: SW-620 colon
UO-31 renal = test system: UO-31 renal
RXF 393 renal = test system: RXF 393 renal
HCT-116 colon = test system: HCT-116 colon
NCI-H522 lung = test system: NCI-H522 lung
SF-295 CNS = test system: SF-295 CNS
MDA-MB-231 breast = test system: MDA-MB-231 breast
786-0 renal = test system: 786-0 renal
EKVX NSCLC = test system: EKVX NSCLC
HL-60(TB) leukemia = test system: HL-60(TB) leukemia
U251 CNS = test system: U251 CNS
COLO 205 colon = test system: COLO 205 colon
DU-145 prostate = test system: DU-145 prostate
KM12 colon = test system: KM12 colon
UACC-257 melanoma = test system: UACC-257 melanoma
HCT-15 colon = test system: HCT-15 colon
RPMI-8226 leukemia = test system: RPMI-8226 leukemia
SK-MEL-5 melanoma = test system: SK-MEL-5 melanoma
HS 578T breast = test system: HS 578T breast
NCI/ADR-RES ovarian = test system: NCI/ADR-RES ovarian
SF-268 CNS = test system: SF-268 CNS
MDA-N = test system: MDA-N
CCRF-CEM leukemia = test system: CCRF-CEM leukemia
MALME-3M melanoma = test system: MALME-3M melanoma
A549 NSCLC = test system: A549 NSCLC
NCI-H23 lung = test system: NCI-H23 lung
OVCAR-8 ovarian = test system: OVCAR-8 ovarian
NCI-H460 lung = test system: NCI-H460 lung
HOP-92 NSCLC = test system: HOP-92 NSCLC
UACC-62 melanoma = test system: UACC-62 melanoma
SF-539 CNS = test system: SF-539 CNS
MDA-MB-435 = test system: MDA-MB-435
SK-OV-3 ovarian = test system: SK-OV-3 ovarian
SK-MEL-2 melanoma = test system: SK-MEL-2 melanoma
PC-3 prostate = test system: PC-3 prostate
MCF7 breast = test system: MCF7 breast
HT29 colon = test system: HT29 colon
CAKI-1 renal = test system: CAKI-1 renal
OVCAR-5 ovarian = test system: OVCAR-5 ovarian
ACHN renal = test system: ACHN renal
SN12C renal = test system: SN12C renal
TK-10 renal = test system: TK-10 renal
T-47D breast = test system: T-47D breast
M14 melanoma = test system: M14 melanoma
BT-549 breast = test system: BT-549 breast
MOLT-4 leukemia = test system: MOLT-4 leukemia
HCC-2998 colon = test system: HCC-2998 colon
LOX IMVI melanoma = test system: LOX IMVI melanoma
SK-MEL-28 melanoma = test system: SK-MEL-28 melanoma
A498 renal = test system: A498 renal
HOP-62 NSCLC = test system: HOP-62 NSCLC
OVCAR-3 ovarian = test system: OVCAR-3 ovarian
OVCAR-4 ovarian = test system: OVCAR-4 ovarian
K-562 leukemia = test system: K-562 leukemia

Q: What does the source list for `Cc1cc(C)c2cc(N)c(Cl)nc2n1`?
A: TGI (SNB-19 CNS): > 100 µM; TGI (IGROV1 ovarian): > 100 µM; TGI (NCI-H226 lung): > 100 µM; TGI (SNB-75 CNS): > 100 µM; TGI (SW-620 colon): > 100 µM; TGI (UO-31 renal): > 100 µM; TGI (RXF 393 renal): > 100 µM; TGI (HCT-116 colon): > 100 µM; TGI (NCI-H522 lung): > 100 µM; TGI (SF-295 CNS): > 100 µM; TGI (MDA-MB-231 breast): > 100 µM; TGI (786-0 renal): > 100 µM; TGI (EKVX NSCLC): > 100 µM; TGI (HL-60(TB) leukemia): > 100 µM; TGI (U251 CNS): > 100 µM; TGI (COLO 205 colon): > 100 µM; TGI (DU-145 prostate): > 100 µM; TGI (KM12 colon): > 100 µM; TGI (UACC-257 melanoma): > 100 µM; TGI (HCT-15 colon): > 100 µM; TGI (RPMI-8226 leukemia): > 100 µM; TGI (SK-MEL-5 melanoma): > 100 µM; TGI (HS 578T breast): > 100 µM; TGI (NCI/ADR-RES ovarian): > 100 µM; TGI (SF-268 CNS): > 100 µM; TGI (MDA-N): > 100 µM; TGI (CCRF-CEM leukemia): > 100 µM; TGI (MALME-3M melanoma): > 100 µM; TGI (A549 NSCLC): > 100 µM; TGI (NCI-H23 lung): > 100 µM; TGI (OVCAR-8 ovarian): > 100 µM; TGI (NCI-H460 lung): > 100 µM; TGI (HOP-92 NSCLC): > 100 µM; TGI (UACC-62 melanoma): > 100 µM; TGI (SF-539 CNS): > 100 µM; TGI (MDA-MB-435): > 100 µM; TGI (SK-OV-3 ovarian): > 100 µM; TGI (SK-MEL-2 melanoma): > 100 µM; TGI (PC-3 prostate): > 100 µM; TGI (MCF7 breast): > 100 µM; TGI (HT29 colon): > 100 µM; TGI (CAKI-1 renal): > 100 µM; TGI (OVCAR-5 ovarian): > 100 µM; TGI (ACHN renal): > 100 µM; TGI (SN12C renal): > 100 µM; TGI (TK-10 renal): > 100 µM; TGI (T-47D breast): > 100 µM; TGI (M14 melanoma): > 100 µM; TGI (BT-549 breast): > 100 µM

Q: How did the TGI (SNB-19 CNS) turn out when `CCOC(=O)c1cc(NC(=O)N(CCC#N)CCN(C(=O)N[C@@H](Cc2ccccc2)C(=O)N[C@@H](CC(C)C)C(=O)NC)c2ccccc2)ccc1OC` was run?
A: > 100 µM

Q: And the TGI (MOLT-4 leukemia)?
A: 82.1 µM

Q: And the TGI (IGROV1 ovarian)?
A: > 100 µM

Q: And the TGI (NCI-H226 lung)?
A: > 100 µM

Q: What about the TGI (SNB-75 CNS) of the same compound?
A: > 100 µM

Q: And the TGI (UO-31 renal)?
A: > 100 µM

Q: And the TGI (RXF 393 renal)?
A: 75.2 µM

Q: And the TGI (HCT-116 colon)?
A: > 100 µM

Q: What about the TGI (HCC-2998 colon) of the same compound?
A: > 100 µM

Q: And the TGI (SF-295 CNS)?
A: > 100 µM

Q: What about the TGI (MDA-MB-231 breast) of the same compound?
A: > 100 µM

Q: And the TGI (786-0 renal)?
A: > 100 µM

Q: And the TGI (EKVX NSCLC)?
A: > 100 µM

Q: And the TGI (LOX IMVI melanoma)?
A: 41.5 µM

Q: And the TGI (COLO 205 colon)?
A: > 100 µM

Q: And the TGI (DU-145 prostate)?
A: > 100 µM

Q: And the TGI (KM12 colon)?
A: > 100 µM

Q: What about the TGI (UACC-257 melanoma) of the same compound?
A: 55 µM

Q: And the TGI (HCT-15 colon)?
A: > 100 µM

Q: What about the TGI (RPMI-8226 leukemia) of the same compound?
A: 57.9 µM

Q: What about the TGI (SK-MEL-5 melanoma) of the same compound?
A: > 100 µM

Q: And the TGI (HS 578T breast)?
A: > 100 µM

Q: What about the TGI (NCI/ADR-RES ovarian) of the same compound?
A: > 100 µM

Q: And the TGI (SK-MEL-28 melanoma)?
A: > 100 µM

Q: And the TGI (SF-268 CNS)?
A: > 100 µM

Q: And the TGI (MDA-N)?
A: > 100 µM

Q: And the TGI (CCRF-CEM leukemia)?
A: > 100 µM

Q: What about the TGI (MALME-3M melanoma) of the same compound?
A: 73.5 µM

Q: And the TGI (A549 NSCLC)?
A: > 100 µM

Q: What about the TGI (NCI-H23 lung) of the same compound?
A: > 100 µM

Q: What about the TGI (OVCAR-8 ovarian) of the same compound?
A: > 100 µM

Q: What about the TGI (A498 renal) of the same compound?
A: > 100 µM

Q: What about the TGI (HOP-62 NSCLC) of the same compound?
A: > 100 µM

Q: What about the TGI (OVCAR-3 ovarian) of the same compound?
A: > 100 µM

Q: What about the TGI (HOP-92 NSCLC) of the same compound?
A: 71 µM

Q: What about the TGI (UACC-62 melanoma) of the same compound?
A: 24.9 µM

Q: What about the TGI (SF-539 CNS) of the same compound?
A: 98.5 µM

Q: And the TGI (MDA-MB-435)?
A: > 100 µM

Q: And the TGI (SK-OV-3 ovarian)?
A: > 100 µM

Q: And the TGI (SK-MEL-2 melanoma)?
A: > 100 µM

Q: What about the TGI (PC-3 prostate) of the same compound?
A: > 100 µM

Q: And the TGI (MCF7 breast)?
A: > 100 µM

Q: What about the TGI (CAKI-1 renal) of the same compound?
A: > 100 µM

Q: What about the TGI (OVCAR-5 ovarian) of the same compound?
A: > 100 µM

Q: And the TGI (ACHN renal)?
A: > 100 µM

Q: What about the TGI (SN12C renal) of the same compound?
A: > 100 µM

Q: And the TGI (TK-10 renal)?
A: > 100 µM

Q: What about the TGI (T-47D breast) of the same compound?
A: > 100 µM

Q: And the TGI (M14 melanoma)?
A: > 100 µM

Q: And the TGI (BT-549 breast)?
A: 82.9 µM

Q: What about the TGI (OVCAR-4 ovarian) of the same compound?
A: > 100 µM

Q: Which results are given for `COc1cc(C2c3[nH]c4ccccc4c3[C@@H](Nc3ccc(F)cc3)[C@H]3COC(=O)N23)cc(OC)c1O` (stereo not given in full)?
A: TGI (SNB-19 CNS): 7.09 µM; TGI (IGROV1 ovarian): 9.24 µM; TGI (NCI-H226 lung): 2.9 µM; TGI (SNB-75 CNS): 6.08 µM; TGI (SW-620 colon): 5.74 µM; TGI (UO-31 renal): 2.67 µM; TGI (HCT-116 colon): > 10 µM; TGI (HCC-2998 colon): 3.34 µM; TGI (SF-295 CNS): 3.69 µM; TGI (MDA-MB-231 breast): > 10 µM; TGI (EKVX NSCLC): > 10 µM; TGI (U251 CNS): 7.96 µM; TGI (LOX IMVI melanoma): 3.26 µM; TGI (DU-145 prostate): 4.07 µM; TGI (KM12 colon): 6.5 µM; TGI (UACC-257 melanoma): > 10 µM; TGI (HCT-15 colon): 5.35 µM; TGI (SK-MEL-5 melanoma): 2.48 µM; TGI (K-562 leukemia): > 10 µM; TGI (HS 578T breast): 2.11 µM; TGI (NCI/ADR-RES ovarian): > 10 µM; TGI (SK-MEL-28 melanoma): > 10 µM; TGI (SF-268 CNS): 7.01 µM; TGI (MDA-N): > 10 µM; TGI (CCRF-CEM leukemia): 3.93 µM; TGI (MALME-3M melanoma): 7.28 µM; TGI (A549 NSCLC): 3.31 µM; TGI (NCI-H23 lung): 5.18 µM; TGI (OVCAR-8 ovarian): > 10 µM; TGI (NCI-H460 lung): 4.74 µM; TGI (A498 renal): 7.55 µM; TGI (HOP-62 NSCLC): 3.42 µM; TGI (OVCAR-3 ovarian): 6.09 µM; TGI (HOP-92 NSCLC): > 10 µM; TGI (UACC-62 melanoma): 4.6 µM; TGI (SF-539 CNS): 3.17 µM; TGI (MDA-MB-435): > 10 µM; TGI (SK-OV-3 ovarian): 3.95 µM; TGI (PC-3 prostate): > 10 µM; TGI (MCF7 breast): > 10 µM; TGI (HT29 colon): > 10 µM; TGI (CAKI-1 renal): 3.22 µM; TGI (OVCAR-5 ovarian): 9.08 µM; TGI (ACHN renal): 1.34 µM; TGI (SN12C renal): 5.57 µM; TGI (TK-10 renal): 4.85 µM; TGI (T-47D breast): > 10 µM; TGI (M14 melanoma): 9.55 µM; TGI (BT-549 breast): 4.28 µM; TGI (OVCAR-4 ovarian): > 10 µM
